Reference: ChEMBL document CHEMBL3351762, “The fungal natural product (1S,3S)-austrocortirubin induces DNA damage in HCT116 cells via a mechanism unique from other DNA damaging agents” (Bioorg Med Chem Lett, 2015)
Activity calls are given as the source filed them. The calls are words filed in the database; no cut-off is given here.

Columns and labels:
[1] = Cell cycle arrest in human HCT116 cells assessed as increase in accumulation at G2/M phase at 100 to 200 uM after 24 by flow cytometry; type: functional, cell-based; conditions: HCT-116
HCT-116 [2] = experiment: Induction of DNA damage in human HCT116 cells at G0/G1 phase at 100 to 200 nM after 24 hrs by gamma-H2AX-staining based-flow cytometry
HCT-116 [3] = experiment: Induction of DNA damage in human HCT116 cells at G2/M phase at 100 to 200 uM after 24 hrs by gamma-H2AX-staining based-flow cytometry; type: functional
HCT-116 [4] = experiment: Induction of DNA damage in human HCT116 cells at S phase at 100 to 200 uM after 24 hrs by gamma-H2AX-staining based-flow cytometry; type: functional
[5] = Cytotoxicity against human HCT116 cells after 72 hrs by cell counting Kit-8 assay; type: functional, cell-based; conditions: HCT-116, 72 h
[6] = Cell cycle arrest in human HCT116 cells assessed as decrease in accumulation at S phase at 100 to 200 uM after 24 by flow cytometry; type: functional, cell-based; conditions: HCT-116
[7] = Cell cycle arrest in human HCT116 cells assessed as cells at M phase at 100 to 200 nM after 24 by flow cytometry; conditions: HCT-116
[8] = Cell cycle arrest in human HCT116 cells assessed as increase in accumulation at S phase at 15 to 30 uM after 24 by flow cytometry; type: functional, cell-based; conditions: HCT-116
[9] = Cell cycle arrest in human HCT116 cells assessed as increase in accumulation at G2/M phase at 15 to 30 uM after 24 by flow cytometry; type: functional, cell-based; conditions: HCT-116
HCT-116 [10] = experiment: Induction of DNA damage in human HCT116 cells at S phase at 15 to 30 uM after 24 hrs by gamma-H2AX-staining based-flow cytometry; type: functional
HCT-116 [11] = experiment: Induction of apoptosis in human HCT116 cells assessed as early-stage apoptotic cells at 15 uM after 24 to 48 hrs by Annexin V/PI-FITC staining based flow cytometry; type: functional
[12] = Cell cycle arrest in human HCT116 cells assessed as cells at M phase at 15 to 30 uM after 24 by flow cytometry; type: functional, cell-based; conditions: HCT-116
HCT-116 [13] = experiment: Induction of DNA damage in human HCT116 cells at G2/M phase at 15 to 30 uM after 24 hrs by gamma-H2AX-staining based-flow cytometry; type: functional
[14] = Cell cycle arrest in human HCT116 cells assessed as increase in accumulation at G2/M phase at 20 uM after 24 by flow cytometry; type: functional, cell-based; conditions: HCT-116
HCT-116 [15] = experiment: Induction of apoptosis in human HCT116 cells assessed as increase in mitosis at 20 uM after 24 by flow cytometry; type: functional
[16] = Cell cycle arrest in human HCT116 cells assessed as increase in accumulation at S phase at 20 uM after 24 by flow cytometry; type: functional, cell-based; conditions: HCT-116

With `COc1cccc2c1C(=O)c1c(O)c3c(c(O)c1C2=O)C[C@@](O)(C(=O)CO)C[C@@H]3O[C@H]1C[C@H](N)[C@H](O)[C@H](C)O1` [DOXORUBICIN] the Activity [1] was “Active”, the Activity (HCT-116 [2]) was “inactive” and the Activity (HCT-116 [3]) was 50%. The Activity (HCT-116 [4]) was 50%, the IC50 [5] was 0.0199 µM and the Activity [6] was “Active”. The Activity [7] was “inactive”.

For `COC1=CC(=O)c2c(O)c3c(c(O)c2C1=O)C[C@](C)(O)C[C@@H]3O`, the Activity [8] was “Active”, the Activity [9] was “Active” and the Activity (HCT-116 [10]) was 90%. The Activity (HCT-116 [11]) was 75%, the Activity [12] was “inactive” and the IC50 [5] was 3.7 µM. For the same molecule, the Activity (HCT-116 [13]) was 50%.

With `COc1cc(O)c2c(c1O)C(=O)c1cc(C)ccc1C2=O` [AUSTROCORTIRUBIN] the IC50 [5] was > 50 µM.

In the case of `COC1=CC(=O)c2c(O)c3c(c(O)c2C1=O)C[C@](C)(O)CC3`, the IC50 [5] is reported as 26.8 µM.

For `CC(=O)O[C@H]1C(=O)[C@@]2(C)[C@H]([C@H](OC(=O)c3ccccc3)[C@]3(O)C[C@H](OC(=O)[C@H](O)[C@@H](NC(=O)c4ccccc4)c4ccccc4)C(C)=C1C3(C)C)[C@]1(OC(C)=O)CO[C@@H]1C[C@@H]2O` [PACLITAXEL], the Activity [14] was “Active”, the “fold change (FC)” value (HCT-116 [15]) was 3 and the IC50 [5] was 0.0027 µM. For the same molecule, the Activity [16] was “Active”.

Molecule `COC1=CC(=O)c2c(O)c3c(c(O)c2C1=O)C[C@@](C)(O)C[C@@H]3O` has an IC50 [5] of 23.7 µM.

In the case of `C[C@]1(O)Cc2c(O)c3c(c(O)c2[C@@H](O)C1)C(=O)C=C(NCCc1ccccc1)C3=O`, the IC50 [5] is reported as 16 µM.

Molecule `C[C@]1(O)Cc2c(O)c3c(c(O)c2[C@@H](O)C1)C(=O)C=C(NCCc1ccc(Cl)cc1)C3=O` has an IC50 [5] of 10.1 µM.
